ChEMBL document CHEMBL1132683 (Bioorg Med Chem Lett, 1999)
Blank lines part the entries; values can stand above or below the molecule they belong to. Numbered stars: 1 amine (or outer) side, 2 acyl side, 3 side chain; on linkers, the order of the positions; unused ones are H or OH. Bridge positions count the residues as written; N and C are the ends. Square brackets hold non-standard residues; d marks the D form. Peptide text beside a SMILES is read from it. X1 = O=C([C@@]1(N[*:1])CCc2ccccc2C1)[*:2]; Atc(2S) = N[C@@]1(C(=O)O)CCc2ccccc2C1; Mpa = O=C(O)CCS; Sar = CNCC(=O)O

Tests used:
Vasopressin V2 receptor = Vasopressin V2 receptor (Rattus norvegicus, UniProt Q00788); experiment: Compound was evaluated for its dissociation constant (Kd) to rat kidney Vasopressin V2 receptor
Vasopressin V1 receptor = Vasopressin V1 receptor (Rattus norvegicus, UniProt P48974+P30560); experiment: Compound was evaluated for its dissociation constant (Kd) to rat liver Vasopressin V1 receptor
[1] = target: Oxytocin receptor (Cavia porcellus); experiment: Compound was evaluated for its dissociation constant (Kd) to guinea pig myometrial Oxytocin receptor

Vasopressin V2 receptor, sequence (Q00788 whole entry): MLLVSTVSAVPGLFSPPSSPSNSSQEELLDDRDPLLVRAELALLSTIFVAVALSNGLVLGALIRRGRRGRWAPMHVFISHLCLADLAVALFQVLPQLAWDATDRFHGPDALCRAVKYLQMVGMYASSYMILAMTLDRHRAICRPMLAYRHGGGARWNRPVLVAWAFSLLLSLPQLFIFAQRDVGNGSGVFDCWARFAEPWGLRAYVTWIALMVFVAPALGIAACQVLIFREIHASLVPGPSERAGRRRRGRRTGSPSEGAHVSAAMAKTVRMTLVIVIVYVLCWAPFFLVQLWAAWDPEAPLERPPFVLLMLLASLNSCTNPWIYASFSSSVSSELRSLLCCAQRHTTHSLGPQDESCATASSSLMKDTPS

Compound: CC[C@H](C)[C@@H]1NC(=O)[C@@H]2c3[nH]c4ccccc4c3CCN2C(=O)CCSSC[C@H](C(=O)N(C)CC(=O)N[C@@H](CCCN=C(N)N)C(=O)NCC(N)=O)NC(=O)[C@H](CC(N)=O)NC(=O)[C@H](CCC(N)=O)NC1=O
Kd (Vasopressin V2 receptor): > 100 µM
Kd (Vasopressin V1 receptor): 0.0178 µM

Compound: CC[C@H](C)[C@@H]1NC(=O)[C@@H](Cc2ccccc2)NC(=O)CCSSC[C@@H](C(=O)N(C)CC(=O)N[C@@H](CCCNC(=N)N)C(=O)NCC(N)=O)NC(=O)[C@H](CC(N)=O)NC(=O)[C@H](CCC(N)=O)NC1=O
Kd (Vasopressin V2 receptor): 0.421 µM

Compound: CC[C@H](C)[C@@H]1NC(=O)[C@@H](Cc2c[nH]c3ccccc23)NC(=O)CC2(CCCCC2)SSC[C@@H](C(=O)N(C)CC(=O)N[C@@H](CCCNC(=N)N)C(=O)NCC(N)=O)NC(=O)[C@H](CC(N)=O)NC(=O)[C@H](CCC(N)=O)NC1=O
Kd (Vasopressin V2 receptor): 0.003 µM
Kd [1]: 0.006 µM

Compound: CC[C@H](C)[C@@H]1NC(=O)[C@@H]2c3[nH]c4ccccc4c3CCN2C(=O)CCSSC[C@H](C(=O)N(C)CC(=O)N[C@@H](CCCN=C(N)N)C(=O)NCC(N)=O)NC(=O)[C@H](CC(N)=O)NC(=O)[C@H](CCC(N)=O)NC1=O (single isomer, unassigned)
Kd (Vasopressin V2 receptor): > 100 µM
Kd (Vasopressin V1 receptor): 0.0635 µM

Next, values leading:

Kd (Vasopressin V2 receptor): 4.96 µM
Kd (Vasopressin V1 receptor): 0.888 µM
Compound: CC[C@H](C)[C@@H]1NC(=O)[C@@H](Cc2c[nH]c3ccccc23)NC(=O)CCSSC[C@@H](C(=O)N(C)CC(=O)N[C@@H](CCCNC(=N)N)C(=O)NCC(N)=O)NC(=O)[C@H](CC(N)=O)NC(=O)[C@H](CCC(N)=O)NC1=O

Kd (Vasopressin V2 receptor): 5.34 µM
Kd (Vasopressin V1 receptor): 2.64 µM
Compound: CC[C@H](C)[C@@H]1NC(=O)[C@]2(CCc3ccccc3C2)NC(=O)CCSSC[C@@H](C(=O)N(C)CC(=O)N[C@@H](CCCN=C(N)N)C(=O)NCC(N)=O)NC(=O)[C@H](CC(N)=O)NC(=O)[C@H](CCC(N)=O)NC1=O ([Mpa][X1]IQNC[Sar]RG-NH2; disulfide 1-6)

Kd (Vasopressin V2 receptor): 2.29 µM
Kd (Vasopressin V1 receptor): 17.6 µM
Compound: CC[C@H](C)[C@@H]1NC(=O)[C@@]2(CCc3ccccc3C2)NC(=O)CCSSC[C@@H](C(=O)N(C)CC(=O)N[C@@H](CCCN=C(N)N)C(=O)NCC(N)=O)NC(=O)[C@H](CC(N)=O)NC(=O)[C@H](CCC(N)=O)NC1=O ([Mpa][Atc(2S)]IQNC[Sar]RG-NH2; disulfide 1-6)
